Experimental data from US20240197823A1, “CATIONIC ANTIMICROBIAL PEPTIDES AND USES THEREOF” (priority 2021, published 2024).

Legend:
Assay type in all cases: cell-based, Pseudomonas aeruginosa
MDR strain PA239 [1] = test: Membrane permeabilization, PI incorporation by flow cytometry; details: PA239, 1% triton X-100
From the text: (§1) Determination of membrane permeabilization. To examine whether the selected peptides kill their bacterial target mainly by membrane permeabilization, this study used PI incorporation by the MDR strain PA239 (5×10^8 CFU/mL) quantitated by flow cytometry (Novocyte, USA) or visualized by video imaging using the digital microscope EVOS M7000 (Thermo-Fisher, USA) in bright field or red fluorescence channel. In the flow cytometry experiments [Deslouches B et al., 2015], bacterial cells were either untreated or treated with different peptide E35 concentrations in MHB2 for 1 hour at 37° C. The bacteria-peptide mixture was washed with PBS using an Eppendorf centrifuge at top speed for 7 minutes and incubated with PI in the dark for 15 min at room temperature. Tobramycin was used as a negative control with a 3-hour long incubation. For video imaging, the broth medium was reduced to 20% in PBS (treated or untreated) to decrease the rate of cell division and PI incorporation assessed over time. Video images were recorded in real time using the 40× objective either in bright field or red fluorescence channel.

[2] = system: P. aeruginosa strain PA239; test: Bactericidal assay in FBS-containing medium (FMP); details: within the 3 h of incubation
Procedure: (§2) To test whether PAX follow this common mechanism, the experiment initially examined the bactericidal activity of the top selection, PAX E35, against the MDR P. aeruginosa strain PA239 (resistant to all 12 test antibiotics, including colistin, Table 6). Bactericidal properties were assessed using a medium called FMP (FBS, 15%; MHB2, 25%; PBS, 60%) that is more physiologically relevant than MHB2 with the inclusion of saline and fetal bovine serum, a known inhibitory condition for many AMPs [Di Y P et al., 2020; Deslouches B et al., 2005]. […] In addition, E35 killed 2 logs of the bacterial cells within the first minute of treatment at 2 μM and 4 μM, compared to the non-effective tobramycin (FIG. 6B). No bacterial cells survived E35 treatment after 5-10 minutes of incubation. […]
(§3) Antibacterial assays. […] The bacterial cells were kept in an incubator for 18 hours at 37° C., which is linked to a robotic system that feeds a plate reader every hour with one of 8×96-well plates. This set-up allows the collection of growth kinetic data at A 570 (absorbance at 570 nm) to examine growth inhibition in real time (BioTek Instruments, USA). […] MBC (minimum bactericidal concentration) was determined as the peptide concentration at which complete bacterial killing was observed [Rozek A et al., 2000]. […] Data were analyzed using GraphPad Prism software.

[3] = system: P. aeruginosa strain PA239; test: Killing kinetics; details: PA239, at 2 μM and 4 μM
Procedure: as §2, §3

MDR strain PA239 [4] = test: Membrane permeabilization, PI incorporation by real-time video imaging; details: PA239 at high inoculum (5×10^8 CFU/mL); E35 at 8 μM
From the text: as §1

Compound | PI incorporation (MDR strain PA239 [1]) | bacterial killing [2] | bacterial cells killed within the first minute of treatment [3] | PI incorporation by real-time video imaging (MDR strain PA239 [4])
triton X-100 | 55% | – | – | –
NC[C@H]1O[C@H](O[C@H]2[C@H](O)[C@@H](O[C@H]3O[C@H](CO)[C@@H](O)[C@H](N)[C@H]3O)[C@H](N)C[C@@H]2N)[C@H](N)C[C@@H]1O [tobramycin] | – | did not display any substantial bacterial killing | non-effective | did not demonstrate any markedly detectable intracellular PI
